Source: ChEMBL document CHEMBL4765295, “Synthesis, pharmacological profile and 2D-QSAR studies of curcumin-amino acid conjugates as potential drug candidates” (Eur J Med Chem, 2020)
Values joined by “and” are separate entries in the source; they are usually repeats but may differ in a detail not shown here. Identical values can stand only once.

Tested on: Mus musculus
Assay: Analgesic activity in albino mouse assessed as protection at 10 mg/kg, ip measured after 60 mins by hot plate test (reference value: 0 %)
Type: functional
Details: 1 h

Structure (SMILES)	Activity [%]
COc1cc(/C=C/C(=O)/C=C(O)/C=C/c2ccc(OC(=O)[C@H](CCSC)NC(=O)OCc3ccccc3)c(OC)c2)ccc1OC(=O)[C@H](CCSC)NC(=O)OCc1ccccc1	15.2

Tested on: Staphylococcus aureus
Assay: Antibacterial activity against Staphylococcus aureus ATCC 25923 incubated for 18 hrs by agar dilution method
Type: functional
Details: not given

MIC	Structure (SMILES)
0.125 µg/mL and 0.139 µM	COc1cc(/C=C/C(=O)/C=C(O)/C=C/c2ccc(OC(=O)[C@H](CCSC)NC(=O)OCc3ccccc3)c(OC)c2)ccc1OC(=O)[C@H](CCSC)NC(=O)OCc1ccccc1

Tested on: Rattus norvegicus
Assay: Anti-inflammatory activity in Wistar rat assessed as inhibition of carrageenan-induced paw edema at 10 mg/kg, ip pretreated for 1 hr followed by carrageenan challenge and measured after 1 hr relative to control (reference value: 0.00 +/-0.02 %)
Type: functional
Details: time 2 hrs

Structure (SMILES)	inhibition in vivo at 10 mg/kg [%]
COc1cc(/C=C/C(=O)/C=C(O)/C=C/c2ccc(OC(=O)[C@H](CCSC)NC(=O)OCc3ccccc3)c(OC)c2)ccc1OC(=O)[C@H](CCSC)NC(=O)OCc1ccccc1	76

Tested on: Mus musculus
Assay: Analgesic activity in albino mouse assessed reduction in acetic acid-induced abdominal writhing by measuring writing reflex at 10 mg/kg, ip pretreated for 1 hr followed by acetic acid challenge and measured starting 5 mins post acetic acid challenge for 10 mins (reference value: 42.4 +/- 1.02)
Type: functional
Details: time 75 min, 1.25 h

Structure (SMILES)	Activity
COc1cc(/C=C/C(=O)/C=C(O)/C=C/c2ccc(OC(=O)[C@H](CCSC)NC(=O)OCc3ccccc3)c(OC)c2)ccc1OC(=O)[C@H](CCSC)NC(=O)OCc1ccccc1	16.5

Tested on: Mus musculus
Assay: Analgesic activity in albino mouse assessed protection against acetic acid-induced abdominal writhing at 10 mg/kg, ip pretreated for 1 hr followed by acetic acid challenge and measured starting 5 mins post acetic acid challenge for 10 mins relative to indomethacin
Type: functional
Details: time 75 min, 1.25 h

Structure (SMILES)	Activity [%]
COc1cc(/C=C/C(=O)/C=C(O)/C=C/c2ccc(OC(=O)[C@H](CCSC)NC(=O)OCc3ccccc3)c(OC)c2)ccc1OC(=O)[C@H](CCSC)NC(=O)OCc1ccccc1	9.2

Tested on: not listed separately
Assay: Ulcerogenic activity in fasted albino mouse assessed as average severity of ulcers in gastric mucosa at 10 mg/kg, po for 3 days (reference value: 0)
Type: toxicity, organism-based
Details: in vivo, 72 h, time 3 day

Structure (SMILES)	Activity
COc1cc(/C=C/C(=O)/C=C(O)/C=C/c2ccc(OC(=O)[C@H](CCSC)NC(=O)OCc3ccccc3)c(OC)c2)ccc1OC(=O)[C@H](CCSC)NC(=O)OCc1ccccc1	0.33

Tested on: Rattus norvegicus
Assay: Anti-inflammatory activity in Wistar rat assessed as inhibition of carrageenan-induced paw edema at 10 mg/kg, ip pretreated for 1 hr followed by carrageenan challenge and measured after 4 hr relative to control (reference value: 0.00 +/-0.4 %)
Type: functional
Details: time 5 hrs

Structure (SMILES)	inhibition in vivo at 10 mg/kg [%]
COc1cc(/C=C/C(=O)/C=C(O)/C=C/c2ccc(OC(=O)[C@H](CCSC)NC(=O)OCc3ccccc3)c(OC)c2)ccc1OC(=O)[C@H](CCSC)NC(=O)OCc1ccccc1	88

Tested on: Rattus norvegicus
Assay: Antiinflammatory activity in Wistar rat model of carrageenan-induced paw edema assessed as reduction in thickness of paw edema at 10 mg/kg, ip pretreated for 1 hr followed by carrageenan challenge and measured after 2 hrs (reference value: 2.06 +/-0.09 mm)
Type: functional
Details: time 3 hrs

Structure (SMILES)	Activity [mm]
COc1cc(/C=C/C(=O)/C=C(O)/C=C/c2ccc(OC(=O)[C@H](CCSC)NC(=O)OCc3ccccc3)c(OC)c2)ccc1OC(=O)[C@H](CCSC)NC(=O)OCc1ccccc1	0.41

Tested on: Mus musculus
Assay: Analgesic activity in albino mouse assessed as protection at 10 mg/kg, ip measured after 30 mins by hot plate test (reference value: 0 %)
Type: functional
Details: 0.5 h

Structure (SMILES)	Activity [%]
COc1cc(/C=C/C(=O)/C=C(O)/C=C/c2ccc(OC(=O)[C@H](CCSC)NC(=O)OCc3ccccc3)c(OC)c2)ccc1OC(=O)[C@H](CCSC)NC(=O)OCc1ccccc1	6

Tested on: Rattus norvegicus
Assay: Antiinflammatory activity in Wistar rat model of carrageenan-induced paw edema assessed as reduction in thickness of paw edema at 10 mg/kg, ip pretreated for 1 hr followed by carrageenan challenge and measured after 4 hrs (reference value: 1.40 +/-0.10 mm)
Type: functional
Details: time 5 hrs

Structure (SMILES)	Activity [mm]
COc1cc(/C=C/C(=O)/C=C(O)/C=C/c2ccc(OC(=O)[C@H](CCSC)NC(=O)OCc3ccccc3)c(OC)c2)ccc1OC(=O)[C@H](CCSC)NC(=O)OCc1ccccc1	0.17

Tested on: Rattus norvegicus
Assay: Anti-inflammatory activity in Wistar rat assessed as inhibition of carrageenan-induced paw edema at 10 mg/kg, ip pretreated for 1 hr followed by carrageenan challenge and measured after 3 hr relative to control (reference value: 0.00 +/-0.1 %)
Type: functional
Details: time 4 hrs

Structure (SMILES)	inhibition in vivo at 10 mg/kg [%]
COc1cc(/C=C/C(=O)/C=C(O)/C=C/c2ccc(OC(=O)[C@H](CCSC)NC(=O)OCc3ccccc3)c(OC)c2)ccc1OC(=O)[C@H](CCSC)NC(=O)OCc1ccccc1	86

Tested on: Mus musculus
Assay: Analgesic activity in albino mouse assessed as forepaw licking/jumping latency time at 10 mg/kg, ip measured after 60 mins by hot plate test (reference value: 3.42 +/- 0.03 sec)
Type: functional
Details: 1 h

Structure (SMILES)	Time [s]
COc1cc(/C=C/C(=O)/C=C(O)/C=C/c2ccc(OC(=O)[C@H](CCSC)NC(=O)OCc3ccccc3)c(OC)c2)ccc1OC(=O)[C@H](CCSC)NC(=O)OCc1ccccc1	3.94

Tested on: Splenocyte
Assay: Immunomodulatory activity in Swiss albino mouse splenocytes assessed as cell viability at 10 uM by measuring inhibition of stimulation index incubated for 72 hrs in presence of mitogenic stimulus phytohaemagglutinin by MTT assay relative to indomethacin
Type: functional
Details: read-out: Activity

Structure (SMILES)	viability at 10 µM [%]
COc1cc(/C=C/C(=O)/C=C(O)/C=C/c2ccc(OC(=O)[C@H](CCSC)NC(=O)OCc3ccccc3)c(OC)c2)ccc1OC(=O)[C@H](CCSC)NC(=O)OCc1ccccc1	99.3

Tested on: Mus musculus
Assay: Analgesic activity in albino mouse assessed as protection at 10 mg/kg, ip measured after 90 mins by hot plate test (reference value: 0 %)
Type: functional
Details: 1.5 h

Structure (SMILES)	Activity [%]
COc1cc(/C=C/C(=O)/C=C(O)/C=C/c2ccc(OC(=O)[C@H](CCSC)NC(=O)OCc3ccccc3)c(OC)c2)ccc1OC(=O)[C@H](CCSC)NC(=O)OCc1ccccc1	34.6

Tested on: Rattus norvegicus
Assay: Antiinflammatory activity in Wistar rat model of carrageenan-induced paw edema assessed as reduction in thickness of paw edema at 10 mg/kg, ip pretreated for 1 hr followed by carrageenan challenge and measured after 24 hrs (reference value: 0.83 +/-0.08 mm)
Type: functional
Details: time 25 hrs

Structure (SMILES)	Activity [mm]
COc1cc(/C=C/C(=O)/C=C(O)/C=C/c2ccc(OC(=O)[C@H](CCSC)NC(=O)OCc3ccccc3)c(OC)c2)ccc1OC(=O)[C@H](CCSC)NC(=O)OCc1ccccc1	0.05

Tested on: Mus musculus
Assay: Analgesic activity in albino mouse assessed as protection at 10 mg/kg, ip measured after 120 mins by hot plate test (reference value: 0 %)
Type: functional
Details: 2 h

Structure (SMILES)	Activity [%]
COc1cc(/C=C/C(=O)/C=C(O)/C=C/c2ccc(OC(=O)[C@H](CCSC)NC(=O)OCc3ccccc3)c(OC)c2)ccc1OC(=O)[C@H](CCSC)NC(=O)OCc1ccccc1	21.4

Tested on: Streptococcus pyogenes
Assay: Antibacterial activity against Streptococcus pyogenes ATCC 19615 incubated for 18 hrs by agar dilution method
Type: functional
Details: not given

MIC	Structure (SMILES)
0.125 µg/mL and 0.139 µM	COc1cc(/C=C/C(=O)/C=C(O)/C=C/c2ccc(OC(=O)[C@H](CCSC)NC(=O)OCc3ccccc3)c(OC)c2)ccc1OC(=O)[C@H](CCSC)NC(=O)OCc1ccccc1

Tested on: not listed separately
Assay: Ulcerogenic activity in fasted albino mouse assessed as ulcer index in gastric mucosa at 10 mg/kg, po for 3 days (reference value: 0)
Type: toxicity, organism-based
Details: in vivo, 72 h, time 3 day

Structure (SMILES)	UI
COc1cc(/C=C/C(=O)/C=C(O)/C=C/c2ccc(OC(=O)[C@H](CCSC)NC(=O)OCc3ccccc3)c(OC)c2)ccc1OC(=O)[C@H](CCSC)NC(=O)OCc1ccccc1	3.99
